# Test results reported in patent US11230711B2, “Inhibition of LET7I as a means to enhance the protective effect of progesterone against stroke” (UNIVERSITY OF NORTH TEXAS HEALTH SCIENCE CENTER, priority 2017, dated 2022).
# Columns and labels:
# [1] = tested on: primary cortical astrocytes; conditions: 10 nM P4; reported in reference (10); cited from earlier work
# BDNF = experiment: pro- and mature BDNF protein in the penumbra after MCAo (Western blot); assay type: in vivo, mouse; conditions: MCAo mice; 14 days post stroke, compared to sham; FIG. 11D
# Description: (FIG. 11A) Representative immunoblots probed for Pgrmc1, pro- and mature-BDNF. (FIG. 11B) Quantitation graph of relative Pgrmc1 protein ratio to Gapdh (n=4-5 per group). (FIG. 11C) Quantitation graph of relative pro-BDNF protein ratio to Gapdh (n=4-5 per group). (FIG. 11D) Quantitation graph of relative mature BDNF protein ratio to Gapdh (n=4-5 per group). (FIG. 11E) Quantitation graph of relative let-7i expression in ischemic brain (n=4-5 per group). n.s: not significant, ** P<0.01 and *P<0.05 compared to sham, and #P<0.05 compared to P4+scrambled. Data are presented as the mean±SEM.
# Primary cortical astrocytes and mouse brains were lysed with RIPA lysis buffer containing protease and phosphatase inhibitors, as previously described (44). After homogenization, samples were centrifuged at 45,000 rpm for 30 min at 4° C. and supernatants were collected. Total protein concentrations were determined using the Bio-Rad DC protein assay kit (Bio-Rad Laboratories). Cell lysates were separated by SDS-PAGE and transferred onto polyvinylidene fluoride membrane (Bio-Rad Laboratories) by electroblotting. Membranes were blocked with 5% skim milk in tris-buffered saline containing 0.2% Tween 20 (TBS-T) for 1 h at room temperature, followed by overnight incubations of primary antibodies at 4° C. […]
# synaptophysin (SYP) = experiment: Synaptophysin (SYP) protein and puncta in the penumbra after MCAo (immunofluorescence, Western blot); assay type: in vivo, mouse; conditions: MCAo mice
# Description: FIGS. 14A-14D: Inhibition of let-7i enhances progesterone (P4)'s effect on the expression of synaptophysin in the penumbra. (FIG. 14A) Representative confocal images of penumbra region staining for synaptophysin (SYP, red) and DAPI (blue). (60×, Scale bars=30 μm). (FIG. 14B) Quantification of average relative SYP puncta presents in each field (n=3 per group). n.s: not significant and ***P<0.001 compared to sham, ### P<0.001 and ##P<0.01 compared to P4+scrambled. (FIG. 14C) Representative immunoblots probed for SYP protein. (FIG. 14D) Quantification graph of Syp signal, expressed as a ratio to Gapdh (n=4-5 per group). n.s: not significant, ***P<0.001 and **P<0.01 compared to sham, ## P<0.01 and #P<0.05 compared to P4+scrambled.
# Primary cortical astrocytes and mouse brains were lysed with RIPA lysis buffer containing protease and phosphatase inhibitors, as previously described (44). […] Total protein concentrations were determined using the Bio-Rad DC protein assay kit (Bio-Rad Laboratories). […]
# Mouse brains were fixed in 4% PFA overnight at 4° C. and subsequently cryoprotected in 30% sucrose solution. […] After immunostaining, sections were mounted onto microscope slides with Vectashield mounting medium (Vector Laboratories) and observed under a confocal fluorescence microscope (FV1200, Olympus) with a […] objective. […]
# C57BL/6J mice = experiment: Wire suspension (wire hanging) test of grip strength / motor function after MCAo; assay type: in vivo, mouse; conditions: Example 2, FIG. 13
# Protocol: Animals will be trained 2 days before MCAo procedure and will be tested on day 3, 7, and 14 post stroke. Animals will be allow to suspend their bodies on a single wire stretched between 2 posts 50 cm above the ground. Between the posts, a soft pillow will be placed to avoid injury in case of a fall. Training will be achieved simply with several rounds of habituation and trials. In the actual testing phase, mice will be tested 3 times and average performance is recorded as final values.
# All mice were first ovariectomized to deplete endogenous ovarian hormone levels. Two weeks after ovariectomy (OVX), P4 pellets were subcutaneously implanted into these animals to replenish their progesterone levels. In parallel, different groups received cholesterol pellet implantations to serve as vehicle control. One week after pellet implantation, stroke was induced in these mice using middle cerebral artery occlusion (MCAo) procedure. In parallel, different groups received sham operation (non-stroke). […]
# wire suspension test: In ordered to assess motor function recovery with different treatments, wire suspension test, a test of grip strength and endurance, was used, as described elsewhere (58). […] The latency for animals to fall off the wire was recorded. […] Performances of these mice was evaluated at day 3, 7 and 14 post stroke.
compound,measurement,setting,value
"CC(=O)[C@H]1CC[C@H]2[C@@H]3CCC4=CC(=O)CC[C@]4(C)[C@H]3CC[C@]12C [P4, progesterone]",release of BDNF from astrocytes,[1],maximal release of BDNF
same,mature BDNF level in the penumbra,BDNF,able to maintain the same level
same,SYP total protein expression in the penumbra,"synaptophysin (SYP); day 7 and day 14, FIG. 14D","delayed, but sustained, restoration"
same,number of SYP puncta in the penumbra,"synaptophysin (SYP); day 14, FIG. 14B",positive effect
same,motor function recovery (wire suspension test),C57BL/6J mice; day 7,partial recovery
same,motor function recovery (wire suspension test),C57BL/6J mice; day 14,partial recovery
